# T1: galactosamine-6-sulfatase (GALNS) (Homo sapiens, UniProt P34059)
# T1 sequence (P34059 27-522): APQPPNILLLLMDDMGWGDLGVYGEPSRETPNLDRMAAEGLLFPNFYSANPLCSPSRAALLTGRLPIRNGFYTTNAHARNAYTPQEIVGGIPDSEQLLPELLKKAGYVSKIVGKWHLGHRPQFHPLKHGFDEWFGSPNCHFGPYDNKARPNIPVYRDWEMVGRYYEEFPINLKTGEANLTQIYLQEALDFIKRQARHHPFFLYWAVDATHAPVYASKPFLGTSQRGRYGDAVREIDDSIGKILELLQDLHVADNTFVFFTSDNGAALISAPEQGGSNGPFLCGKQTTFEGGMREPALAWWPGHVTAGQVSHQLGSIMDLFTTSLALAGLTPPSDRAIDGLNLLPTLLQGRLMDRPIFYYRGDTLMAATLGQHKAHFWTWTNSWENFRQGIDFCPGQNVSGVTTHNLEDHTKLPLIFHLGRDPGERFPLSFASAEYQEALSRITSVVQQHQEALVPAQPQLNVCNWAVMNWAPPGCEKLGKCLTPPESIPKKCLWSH
# How the values were obtained:
# [1] = molecular target: T1, galactosamine-6-sulfatase (GALNS); assay: biochemical
# [2] = substrate: Cc1cc(=O)oc2cc(O[C@@H]3O[C@H](COS(=O)(=O)O)[C@H](O)[C@H](O)[C@H]3O)ccc12; type: biochemical, Homo sapiens; settings: Ca2+; Cys79 modified to formylglycine/dihydroxyalanine (DHA) active site
Molecule,Ki [1],Km [2]
O=S(=O)(O)O [sulfate],570 ± 150 µM,
galactosamine-6-sulfatase (GALNS) (Homo sapiens) (protein) APQPPNILLLLMDDMGWGDLGVYGEPSRETPNLDRMAAEGLLFPNFYSANPLCSPSRAALLTGRLPIRNGFYTTNAHARNAYTPQEIVGGIPDSEQLLPELLKKAGYVSKIVGKWHLGHRPQFHPLKHGFDEWFGSPNCHFGPYDNKARPNIPVYRDWEMVGRYYEEFPINLKTGEANLTQIYLQEALDFIKRQARHHPFFLYWAVDATHAPVYASKPFLGTSQRGRYGDAVREIDDSIGKILELLQDLHVADNTFVFFTSDNGAALISAPEQGGSNGPFLCGKQTTFEGGMREPALAWWPGHVTAGQVSHQLGSIMDLFTTSLALAGLTPPSDRAIDGLNLLPTLLQGRLMDRPIFYYRGDTLMAATLGQHKAHFWTWTNSWENFRQGIDFCPGQNVSGVTTHNLEDHTKLPLIFHLGRDPGERFPLSFASAEYQEALSRITSVVQQHQEALVPAQPQLNVCNWAVMNWAPPGCEKLGKCLTPPESIPKKCLWSH,,13 ± 2 mM
